Measured values taken from patent US20040077080A1, “Compositions and methods for induction of proteins involved in xenobiotic metabolism” (priority 2000, published 2004).
“Also recorded” adds a separate entry of the source.

Legend:
[1] = test system: AhR (dioxin response elements); test: in vitro; conditions: human, fold induction of luciferase activity above DMSO, DRE12-6 cells, 28 hours; TCDD 10 nanomoles per liter, omeprazole 25, 2-AAF 100, DMBA 20 micromoles per liter
Protocol: (§2) FIG. 25A: DRE12-6 cells were treated for 28 hours with the indicated concentrations of phytochemicals. FIG. 25B: DRE12-6 cells were treated with the indicated chemicals for 3 hours prior to co-treatment with 2,3,7,8-tetrachlorodibenzo-p-dioxin (TCDD) for 28 hours.
(§3) Chemical treatment was followed by cell lysis and luciferase measurement.
(§4) FIG. 26A: DRE12-6 cells were inoculated into a 96-well plate (2×10^4 cells per well) a day prior to treatment and treated for 28 hours with the indicated concentrations of the environmental contaminants (PAHs, PAH derivatives, PCBs, or pesticide derivatives). FIG. 26B: DRE12-6 cells were treated with the indicated chemicals for 3 hours prior to co-treatment with 2,3,7,8-tetrachlorodibenzo-p-dioxin (TCDD) for 28 hours.
(§5) The luciferase-SV40 promoter vector, with the three copies of the dioxin response elements, was transfected into HepG2 cells, which were put under neomycin selection to yield the stable cell line DRE12-6, for detection of AhR-dependent transactivation.
(§6) Luciferase assay: Luciferase assays using the LucLite system (Packard Instrument Co., Meriden, Conn.) were performed according to the manufacturer's instructions. Results were expressed as relative light units or fold induction, relative to DMSO-treated control cells. The data represent the mean±standard deviation of experiments performed in duplicate.

[2] = test system: human CYP1A1 promoter (Ah receptor); test: 101L cell luciferase assay (HepG2 with human CYP1A1 promoter-luciferase), 96-well; conditions: 101L cells; for fold increase in luciferase activity, dose response of known CYP1A1 inducers: benzanthracene and omeprazole maximum at 100 micromolar, TCDD at 2 nanomolar
Protocol: Cells were initially seeded in flasks containing media without G418. After an overnight incubation the cultures were changed into media containing G418 for antibiotic selection. After three to five days, cells were removed from flasks by trypsinization and replated on either a twenty-four-well plate at a density of 3.5×10^5 cells per well, or a ninety-six-well plate at a density of 7.5×10^4 cells per well, in DMEM media that was replaced with that containing 0.1% FBS and without G418 or indicator (phenol red). The next day, media containing 0.1% FBS and G418 was added to the cultures. […] For the antagonist experiments, cells were co-treated with a flavonoid and two nanomolar TCDD. All inducers were dissolved in DMSO and this reagent was added to control cells at 0.1%. The cells were treated with varous doses and times (six to eighteen hours). After treatment, the media containing the compound was removed by aspiration and replaced with one-hundred microliters per well of DMEM for direct analysis of luciferase activity. Experiments were performed on 101L cells from frozen stocks on the initial derivation and the passage number was limited to thirty.
Luciferase assays were performed as specified by the manufacturer (LucLite system, Packard Instrument, Meriden, Conn.). Activity was determined using a Packard LumiCount luminometer and results expressed as relative light units or fold increase above control (DMSO treated cells.

[3] = test system: CYP1A1 mRNA; test: Northern blot of CYP1A1 mRNA in primary cultures of human hepatocytes (Example II); conditions: primary human hepatocytes
Protocol: Six well plates containing human hepatocytes were obtained from the Liver Tissue Procurement and Distribution System (LTPADS, University of Minnesota, Minneapolis, Minn.). […] All inducers were dissolved in DMSO and added to media at a 0.1% final concentration of this reagent. After treatment, media was removed and cells harvested for RNA isolation.
(§1) Total RNA from hepatocytes or HepG2 cells was isolated using Trizol™ reagent (Gibco BRL Products, Gaithersburg, Md.) and quantified by measuring absorbance at 260 nm; purity was assessed by determining the 260/280 nm ratio. […] A cDNA probe for human 18S RNA probe (Ambion, Austin Tex.) was used to normalize the amount of RNA loaded in each lane. […] Autoradiographs of Northern blots were quantified by densitometry using a Model GS-670 Imaging Densitometer equipped with Molecular Analysis/Mac version 1.1.1. Image Analysis software (BioRad laboratories, Hercules, Calif.) or by scaning autoradiograms with a ScanMaker II (Microtek) and digitized with Un-Scan-It software (Silk Scientific, Orem Utah). Exposure times used were in the linear range of the film, Kodak XAR-5.

[4] = test system: CYP2C19 (hCAR); test: CYP2C19 induction in HepG2 cell lines stably transfected with hCAR
[5] = test system: CYP3A4 mRNA; conditions: human, hepatocytes
Protocol: FIG. 28B: Human primary hepatocytes were exposed for 48 hours to commercial health supplements including grapeseed, garlic, kava-kava, and ginseng.
Total RNA was prepared from the treated cells, subjected to electrophoresis on a 1% formaldehyde gel, and transferred onto a nylon membrane.

[6] = test system: CYP3A4 mRNA; conditions: human, hepatocytes; remark: listed apart in the source
Protocol: FIG. 13 depicts the effect of various CYP3A4 inducers on CYP3A4 expression in human hepatocytes. […] Total RNA (ten micrograms) was subjected to northern blot analysis and developed with a specific cDNA probe to CYP3A4 as described in the Examples.
Human hepatocytes were treated with various CYP3A4 inducers for forty eight hours, harvested, and RNA and cell homogenates isolated.

[7] = test system: AhR (dioxin response elements); test: DRE12-6 luciferase assay (HepG2 with dioxin response elements); conditions: DRE12-6 cells, 28 hours
Protocol: as §2, §3, §4, §5, §6

[8] = test system: CYP1A1 mRNA; test: Northern blot of CYP1A1 in primary human hepatocytes (Example V)
Text: The isolated RNA was subjected to Northern blot analysis.

[9] = test system: PXR / mdr1(dr4) response element; test: Hep-PXR/Pgp-Luc stable cell luciferase assay; conditions: Hep-PXR/PgpLuc cells, 48 hours; omeprazole 100 micromoles per liter versus rifampicin 10 micromoles per liter
Protocol: FIG. 35 depicts dose-response behavior to various PXR activators in stable cell lines overexpressing PXR and harboring DR4 response element. FIG. 35A: Results are shown for the stable cell line Hep-PXR/PgpLuc. FIG. 35B: Results are shown for the stable cell line Caco-PXR/PgpLuc.
Cells were exposed to the test compounds for 48 hours at the concentrations indicated.
FIG. 36 depicts the effect of environmental and botanical chemicals on luciferase activity in the stable cell line Hep-PXR/PgpLuc. Cells were inoculated into 96-well plates at a density of 2×10^4 cells per well. After overnight recovery, cells were treated with the test compounds at the concentrations indicated for 48 hours.
Establishment of stable transformants containing both PXR and reporter plasmid and development of high throughput bioassay for PXR-dependent transactivation: The stable transformants Hep-PXR/mdr1(dr4)-Luc and Caco-PXR/mdr1(dr4)-Luc cell lines were generated from the parental cell lines HepG-PXR and Caco-PXR, respectively, according to the following procedure. The parental cell lines HepG-PXR and Caco-PXR, which overexpress PXR, were stably transfected with the luciferase reporter plasmid mdr1(dr4)-Luc. The transfected cells were cultured in DMEM (HepG-PXR cells) or in IMEM (Caco-PXR cells), both media supplemented with 10% fetal bovine serum and neomycin (700 micrograms per milliliter).
For the induction assay, stable transformants were seeded in 96-wells plates at a density of 1×10^4 cells per well and allowed to recover overnight. Plates were treated with test compounds at varying concentrations, using 3 replicates per dose. After 48 hours of exposure to the test compound, cells were washed with phosphate buffered saline, lysis buffer was applied to the wells, and luciferase substrate added. Following 10 minutes for light adaptation, luminescence was monitored according to the manufacturer's instructions (Packard kit, Biomed).

[10] = test system: PXR / CYP3A4 response elements; test: DPX2 (Hepg-hPXR/3A4-Luc) luciferase assay; conditions: DPX2 cells, kava-kava 100 micrograms per milliliter, chrysin 25 micromoles per liter
Protocol: Compounds tested included known PXR ligands and conventional drugs (FIG. 30A), environmental contaminants (FIG. 30B), and herbal supplements (FIG. 30C). DPX2 cells were cultured with DMEM supplemented with 10% fetal bovine serum and neomycin. Cells were inoculated into 96-well plate at a density of 1×10^4 cells per well the day before treatment.
2. […] In addition, a distal enhancer module, XREM, was amplified by PCR using the sense primer
The resulting amplified XREM fragment was ligated upstream of PXRE containing a 3A4 promoter, into a luciferase vector.
A neomycin resistance gene was generated by PCR amplification using the pcDNA3.1 plasmid (Invitrogen, Carlsbad, Calif.), which encodes a neomycin resistant gene, as a DNA template. The sense primer had the sequence […] Amplification was followed by SalI digestion of the PCR product, and the resulting fragment ligated to the SalI-digested PGL3-promoter plasmid, which contains luciferase as a reporter gene. […] The CYP3A4 cell line DPX2 (Hepg-hPXR/3A4-Luc) was established by double transfection with the PXR expression plasmid and the luciferase plasmid containing CYP3A4 PXR response element under selection with both neomycin and hygromycin.

[11] = test system: T1, CAR (hCAR) (Homo sapiens), Q14994-2; test: cell_activity; conditions: Caco-2 luciferase, fold above no receptor
T1 sequence: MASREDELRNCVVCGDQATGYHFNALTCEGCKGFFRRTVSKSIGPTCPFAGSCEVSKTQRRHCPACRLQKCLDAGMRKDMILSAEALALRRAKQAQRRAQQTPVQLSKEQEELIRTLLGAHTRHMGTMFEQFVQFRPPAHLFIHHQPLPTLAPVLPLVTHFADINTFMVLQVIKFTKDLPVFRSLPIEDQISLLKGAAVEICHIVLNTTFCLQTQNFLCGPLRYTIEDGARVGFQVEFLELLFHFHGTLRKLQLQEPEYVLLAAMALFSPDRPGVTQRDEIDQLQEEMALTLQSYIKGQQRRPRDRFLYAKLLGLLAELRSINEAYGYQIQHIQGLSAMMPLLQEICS

[12] = test system: CYP3A4 enhancer (PXRE); test: Luciferase reporter assay, HepG2 cells stably transformed with CYP3A4 enhancer (colony 13); conditions: 72 hours, omeprazole 100, clotrimazole 10, RU486 10, PCN 50, TCDD 1 micromolar
Text: (§7) HepG2 cells were harvested at approximately 50% confluency and seeded in six well dishes at 5×10^5 cells per well in DMEM containing 10% fetal bovine serum (FBS). […] The control cells were those that received plasmid DNA containing pGL3 promoter and pIRES(neo) or pGL3promoter and hPXR in pIRES(neo). After sixteen hours of exposure to the precipitated DNA, the culture medium was removed, cells washed twice with DMEM, and fresh media containing 10% FBS added. After an additional twenty four hours, media was replaced with that containing 400 micrograms per milliliter of G418. Media was changed every two days for three weeks until small colonies were visible. Single colonies were selected and transferred to twenty four well Costar plates (VWR, Westchester, Pa.). Each of the twenty four wells contained the same media and cells were grown to confluency with media changes every three days. Confluent wells were trypsinized and cells transferred into six well plates and upon reaching confluency therein, cells were further transferred to T75 flasks.
(§8) Luciferase assays were performed as specified by the manufacture (LucLite system, Packard Instrument, Meriden, Conn.). Activity was determined using the Packard LumniCount luminometer and results expressed as relative light units or fold increase above control (DMSO treated cells).
(§9) Cells were seeded in T75 flasks and grown to confluency. […]

[13] = test system: hPXR / CYP3A4 enhancer; conditions: colony 1F; 72 hours; omeprazole 100 micromolar, PCN 50 micromolar, TCDD 1 micromolar
Text: as §7, §8, §9

[14] = test system: CYP1A1 mRNA; test: Northern blot of CYP1A1 mRNA in HepG2 cells; conditions: HepG2 cells; mean of two determinations
Protocol: HepG2 cells were obtained from American Type Culture Collection (ATCC). Cells were grown in DMEM (Gibco/BRL). Twenty-four hours after cells were plated and grown to confluency, they were treated with one of the bioflavonoids, TCDD, or beta-naphthoflavone (Sigma). All inducers were dissolved in DMSO and this solvent was added to control cells at 0.1%.
as §1

[15] = target: CAR/RXR heterodimer (hCAR/hRXRa) (Homo sapiens, UniProt Q14994-2;P19793 Q14994-2:1-348,P19793:1-462); test: EMSA; conditions: tags: TNT coupled transcription/translation (Promega); label: 32P
[16] = TCDD 10 nanomoles per liter, omeprazole 25, 2-AAF 100, DMBA 20 micromoles per liter
[17] = primary hepatocytes, 24 hours, TCDD 10 nanomoles per liter, 3-MC 0.5 nanomoles per liter, omeprazole 100, chrysin 25, curcumin 50, resveratrol 25, DMBA 20, 2-AAF 100 micromoles per liter

CAR/RXR heterodimer (hCAR/hRXRa), sequence (P19793 whole entry, one chain of several): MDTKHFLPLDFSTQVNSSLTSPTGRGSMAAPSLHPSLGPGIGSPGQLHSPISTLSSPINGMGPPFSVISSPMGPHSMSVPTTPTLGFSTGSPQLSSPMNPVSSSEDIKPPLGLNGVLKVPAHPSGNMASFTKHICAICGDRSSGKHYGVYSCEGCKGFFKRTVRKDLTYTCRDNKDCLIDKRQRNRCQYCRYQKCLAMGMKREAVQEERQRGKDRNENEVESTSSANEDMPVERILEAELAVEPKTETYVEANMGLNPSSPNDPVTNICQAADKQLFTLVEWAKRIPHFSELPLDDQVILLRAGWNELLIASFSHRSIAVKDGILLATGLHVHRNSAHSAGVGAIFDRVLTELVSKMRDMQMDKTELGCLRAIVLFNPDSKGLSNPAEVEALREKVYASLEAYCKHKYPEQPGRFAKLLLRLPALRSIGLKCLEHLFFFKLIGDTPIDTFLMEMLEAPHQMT

c1ccc2cc3c(ccc4ccccc43)cc2c1 [benzanthracene]
fold induction [1]: 28.7 ± 1.65
maximum CYP1A1 mediated luciferase activity ([2]; 96-well plate format, 50 micromolar benzanthracene): 33 fold
fold increase in luciferase activity, dose response of known CYP1A1 inducers [2]: twelve to thirty-five
CYP1A1 mRNA level Subject A (%), normalized to TCDD induction ([3]; 24 hours): 50%
CYP1A1 mRNA level Subject B (%), normalized to TCDD induction ([3]; 24 hours): 50%
CYP1A1 mRNA level Subject C (%), normalized to benzanthracene induction ([3]; Subject C, 24 hours): 100%
CYP1A1 mRNA level Subject D (%), normalized to TCDD induction ([3]; 24 hours): 52%
CYP1A1 mRNA, % of that observed with TCDD, all subjects ([3]; 100 micromolar benzanthracene): 50%

CCC1(c2ccccc2)C(=O)NC(=O)NC1=O [phenobarbital]
induction of HepG2 CYP2C19 (in words) [4]: induce HepG2 CYP2C19
CYP3A4 mRNA by Northern blot (in words) [5]: increased CYP3A4 gene expression
fold increase in CYP3A4 mRNA [6]: 3.8 fold

Cc1ccc2cc3c(ccc4ccccc43)c3c2c1CC3 [3-MC, 3-methylcholanthrene]
AhR-mediated luciferase induction (in words) [7]: dose-dependent increase
CYP1A1 induction by Northern blot (in words) ([8]; hepatocytes): maximum induction

Clc1ccc(-c2nc3sccn3c2C=NOCc2ccc(Cl)c(Cl)c2)cc1 [CITCO, 6-(4-chlorophenyl)imidazo[2,1-b][1,3]thiazole-5-carbaldehyde-O-(3,4-dichlorbenzyl)oxime]
induction of HepG2 CYP2C19 (in words) [4]: induce HepG2 CYP2C19

CC(=O)Nc1ccc2c(c1)Cc1ccccc1-2 [2-AAF, 2-acetylaminofluorene]
strength of luciferase induction (in words) [9]: strongly induced
fold induction of luciferase activity above DMSO [7, 16]: 10.21±0.36 fold
fold induction of luciferase activity above DMSO ([7]; TCDD 10 nanomoles per liter, omeprazole 25, 2-AAF 100, DMBA 20 micromoles per liter, listed as 2-acetylaminofluorene): 4.8 fold
CYP1A1 induction by Northern blot (in words) [8, 17]: increased CYP1A1 expression slightly
fold induction of luciferase activity above DMSO ([10]; 48 hours): 24.7 fold
fold induction at 48 h ([10]; human, fold induction of luciferase activity above DMSO): 24.8

CYP2B6 PBREM reporter
activity [11]: 6.16 fold

Clc1cc2c(cc1Cl)Oc1cc(Cl)c(Cl)cc1O2 [TCDD]
AhR-mediated luciferase induction (in words) [7]: dose-dependent increase
fold induction of luciferase activity above DMSO [7, 16]: 12.99±0.64 fold
fold induction at 28 h ([7]; human, fold induction of luciferase activity above DMSO, TCDD 10 nanomoles per liter, omeprazole 25, 2-AAF 100, DMBA 20 micromoles per liter): 20
fold increase in luciferase activity, dose response of known CYP1A1 inducers [2]: twelve to thirty-five; also recorded: twenty-two
CYP1A1 mRNA level Subject A (%), normalized to TCDD induction ([3]; 24 hours): 100%
CYP1A1 mRNA level Subject B (%), normalized to TCDD induction ([3]; 24 hours): 100%
CYP1A1 mRNA level Subject D (%), normalized to TCDD induction ([3]; 24 hours): 100%
fold increase in luciferase activity above DMSO, single concentrations (FIG. 15) [12]: less than one
CYP1A1 induction by Northern blot (in words) [8, 17]: maximum induction
fold increase in luciferase activity above DMSO, single concentrations (FIG. 14) [13]: less than two
HepG2 CYP1A1 mRNA (%), normalized to TCDD induction [14]: 100%

B1: CYP2C19 F4 fragment (dsDNA)
DNA 1: AACCAAACTCTTCTGACCCCCAATCT
DNA 2: AGATTGGGGGTCAGAAGAGTTTGGTT
binding result [15]: binds
